# Data published in PMC9827882, “Templated Generation of a Bcl‐xL Inhibitor by Isomer‐Free SPAAC Based on Azacyclonon‐5‐yne” (Chemistry (Weinheim an Der Bergstrasse, Germany), 2022).
# Experiments:
# Bcl‐xL [1] = molecular target: T1, Bcl‐xL (Homo sapiens, UniProt Q07817, DEL45-84); experiment: Competitive fluorescence polarization (FP) binding assay: Bcl‐xL and fluorescein‐labeled Bak BH3‐derived peptide; settings: for IC50: Bcl‐xL 37 nM, Bak BH3 peptide 4 nM, triplicate, read-out: IC50 against Bcl‐xL in FP assay
# T1 construct: The protein Bcl‐xL (amino acids 1‐209, Δ45–84, kindly provided by Prof. Ho Sup Yoon); gift of Prof; Ho Sup Yoon, Nanyang Technological University, Singapore
# Description: The abilities of triazoles 11 a/c to interfere with binding between Bcl‐xL and a fluorescein‐labeled peptide derived from the pro‐apoptotic Bcl‐2 protein Bak was analyzed in a competitive binding assay based on fluorescence polarization (FP).[9, 20]
# Fluorescence polarization assays: Assays were performed essentially as described previously.[20, 30] The protein Bcl‐xL (amino acids 1‐209, Δ45–84, kindly provided by Prof. Ho Sup Yoon, Nanyang Technological University, Singapore)[31] was incubated with the test compounds for 1 h at room temperature at a protein concentration of 37 nM. Subsequently, fluorophore‐labeled Bak BH3‐derived peptide (5‐carboxyfluorescein‐[…]‐NH2 was added (final peptide concentration: 4 nM), and the fluorescence polarization was measured after another 60 min in a plate reader (Tecan Infinite F500). All experiments were carried out in triplicate. Buffer composition: 10 mM Tris pH 8.0, 50 mM NaCl, 1 mM EDTA, 0.1 % Nonidet P‐40 substitute, 1 mM DTT, and 2 % DMSO.
# Bcl‐xL [2] = molecular target: T1, Bcl‐xL; experiment: Kinetic analysis by HPLC of the reaction between 12 d and 13 to generate 11 d in aqueous buffer, templated by Bcl‐xL; settings: for second‐order rate constant k of formation of 11 d from 12 d and 13: 12 d and 13 both 50 μM; for second‐order rate constant k of formation of 11 d from 12 d and 13 / rate acceleration over the reaction of 1 and benzyl azide in acetonitrile at room temperature: aqueous buffer, 37 °C
# Description: While the reactivities of cycloalkynes are typically characterized by their second‐order rate constants in the reaction with benzylazide in CD3CN, or sometimes CD3OD, the relevant reactivity of a cycloalkyne for use in iSPAAC is the reactivity between the functionalized cycloalkyne and the functionalized azide in aqueous media at the physiological temperature of 37 °C. We therefore analyzed the kinetics of the reaction between the functionalized cycloalkyne 12 d and the azide 13 in aqueous buffer by reversed‐phase (RP)‐HPLC. Incubation of 12 d and 13 (both at 50 μM) at 37 °C generated the triazole 11 d with a second‐order rate constant of 2.1±0.2×10^−3 M^−1 s^−1 (Figures 7 and S6). This represents a 450‐fold rate acceleration over the reaction of 1 and benzyl azide in acetonitrile at room temperature (k=4.7±0.1×10^−6 M^−1 s^−1). In the presence of an additional, equimolar amount of Bcl‐xL, this rate was further increased by a factor of 6 (k=1.33±0.06×10^−2 M^−1 s^−1), representing a 2800‐fold higher rate constant than observed in the standard reaction between 1 and benzyl azide in acetonitrile at room temperature. […] Of particular relevance in this context are the templated synthesis of sulfonamide‐based Bcl‐xL inhibitors using sulfonyl azides and thioacids,[23] and protein‐templated formation of 1,2,3‐triazoles from azides and terminal alkynes in the absence of Cu^I.[24]
# Kinetic analysis by HPLC: 12 d (50 μM) and 13 (50 μM) were incubated at 37 °C in the absence of Bcl‐xL, in the presence of Bcl‐xL (50 μM), and in the presence of both Bcl‐xL (50 μM) and ABT‐737 (50 μM). At the given time points, aliquots of 60 μL were diluted with 60 μL of 0.1 % TFA in 4.5 % acetonitrile/H2O and analyzed by RP‐HPLC (100 μL injection volume). The formation of 11 d was quantified by peak area using a standard curve. 1/(50×10^−6−[11 d]) [M^−1] was plotted against time. Linear regression gave the second‐order rate constant k as the slope. Experiments were carried out in triplicate. Buffer composition: 10 mM Tris pH 8.0, 50 mM NaCl, 1 mM EDTA, 0.1 % Nonidet P‐40 substitute, and 4 % DMSO.
# [3] = set-up: method as in PMID 18451170; settings: cited from earlier work
# [4] = set-up: method as in PMID 18451170; settings: cited from earlier work; remark: listed apart in the source
# T1 sequence (Q07817 with tags, fused parts or gaps DEL45-84): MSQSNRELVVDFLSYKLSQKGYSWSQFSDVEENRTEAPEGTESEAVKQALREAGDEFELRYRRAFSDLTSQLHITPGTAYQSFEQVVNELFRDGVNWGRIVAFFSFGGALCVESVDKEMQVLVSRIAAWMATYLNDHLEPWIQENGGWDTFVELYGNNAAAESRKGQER
compound,measurement,setting,value
CN(C)CC[C@H](CSc1ccccc1)Nc1ccc(S(=O)(=O)NC(=O)Cn2nnc3c2CCCN(C(=O)c2ccccc2-c2ccc(Cl)cc2)CCC3)cc1[N+](=O)[O-] [11 a],IC50,Bcl‐xL [1],18 ± 0.7 µM
CN(C)CC[C@H](CSc1ccccc1)Nc1ccc(S(=O)(=O)NC(=O)Cn2nnc3c2CCCN(C(=O)OCc2ccccc2-c2ccc(Cl)cc2)CCC3)cc1[N+](=O)[O-] [11 c],IC50,Bcl‐xL [1],11.4 ± 0.9 µM
CN(C)CC[C@H](CSc1ccccc1)Nc1ccc(S(=O)(=O)NC(=O)Cn2nnc3c2CCCN(C(=O)OCC2=C(c4ccc(Cl)cc4)CCNC2)CCC3)cc1[N+](=O)[O-] [11 d],IC50,Bcl‐xL [1],2.42 ± 0.02 µM
same,almost 5-fold higher inhibitory potency of 11 d than 11 c,"Bcl‐xL [1]; ratio of IC50 values, 11 d vs 11 c",~5 fold
same,second‐order rate constant k of formation of 11 d from 12 d and 13,Bcl‐xL [2]; equimolar Bcl‐xL (50 μM),1.33±0.06×10^−2 M^−1 s^−1
same,rate acceleration over the reaction of 1 and benzyl azide in acetonitrile at room temperature,Bcl‐xL [2]; no Bcl‐xL,450 fold
same,second‐order rate constant k of formation of 11 d from 12 d and 13,"Bcl‐xL [2]; no Bcl‐xL, RP‐HPLC",2.1±0.2×10^−3 M^−1 s^−1
same,rate increase by Bcl‐xL (template effect),Bcl‐xL [2]; with equimolar Bcl‐xL vs without Bcl‐xL,6 factor
same,rate acceleration over the reaction of 1 and benzyl azide in acetonitrile at room temperature,Bcl‐xL [2]; with equimolar Bcl‐xL,2800 fold
O=C(c1ccccc1-c1ccc(Cl)cc1)N1CCCC#CCCC1 [12 a],activity against Bcl‐xL in FP assay (in words),"Bcl‐xL [1]; 100 μM, FP assay",inactive
same,activity against Bcl‐xL in FP assay (in words),"Bcl‐xL [1]; 100 μM, FP assay, listed as 12a",no inhibition
O=C(OCc1ccccc1-c1ccc(Cl)cc1)N1CCCC#CCCC1 [12 c],activity against Bcl‐xL in FP assay (in words),"Bcl‐xL [1]; 100 μM, FP assay",inactive
same,activity against Bcl‐xL in FP assay (in words),"Bcl‐xL [1]; 100 μM, FP assay, listed as 12c",no inhibition
O=C(OCC1=C(c2ccc(Cl)cc2)CCNC1)N1CCCC#CCCC1 [12 d],activity against Bcl‐xL in FP assay (in words),"Bcl‐xL [1]; 100 μM, FP assay",inactive
same,activity against Bcl‐xL in FP assay (in words),"Bcl‐xL [1]; 100 μM, FP assay, listed as 12d",no inhibition
CN(C)CC[C@H](CSc1ccccc1)Nc1ccc(S(=O)(=O)NC(=O)c2ccc(N3CCN(Cc4ccccc4-c4ccc(Cl)cc4)CC3)cc2)cc1[N+](=O)[O-] [ABT‐737],oral bioavailability,[3],poor
same,cell permeability in tissue culture,[4],cell‐permeable
CN(C)CC[C@H](CSc1ccccc1)Nc1ccc(S(=O)(=O)NC(=O)CN=[N+]=[N-])cc1[N+](=O)[O-] [compound 13],inhibition at 100 µM,"Bcl‐xL [1]; 100 μM, FP assay",48 ± 3%
